Data on eight compounds can be found in ChEMBL document CHEMBL1201862, “PubChem BioAssay data set” (2004).

Test systems include BT-549; HCC 2998; HCT-116; HL-60; HOP-62; LOX IMVI; NCI-H23; NCI-H460; OVCAR-5; OVCAR-8; RPMI-8226; RXF 393; SF-268; SF-539; SN12C; SNB-75; SR; T47D; U-251.
Test in all cases: inhibition of tumour cell growth, NCI panel, 48 h

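Cells were grown in 96-well plates and exposed to each compound for 48 hours at five concentrations; endpoints were interpolated linearly between bracketing concentrations, or set to the highest concentration if not reached. Abbreviation: GI50, concentration required for 50% inhibition of growth.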 The source made the active and inactive calls. No stated cut-off is given here; in the data, active = GI50 up to about 1.1 µM and inactive = higher.

With `c1ccc2c(c1)Nc1ccccc1[P+]21c2ccccc2Nc2ccccc21`, the GI50 in the assay with BT-549 is 0.153 µM (active); with HCC 2998, 0.313 µM (active); in the assay on HCT-116 it was 0.151 µM (active); in the assay with HL-60, 0.251 µM (active); in the assay on HOP-62, 0.313 µM (active); with LOX IMVI it was 0.587 µM (active). Besides, the GI50 in the assay with NCI-H23 is 0.175 µM (active); in the assay with NCI-H460, 0.146 µM (active); in the assay on OVCAR-5 it was 0.281 µM (active); with OVCAR-8, 0.368 µM (active); with RPMI-8226, 0.0314 µM (active); in the assay on RXF 393, 0.303 µM (active). Further, the GI50 was 0.383 µM (active) in the assay with SF-268; 0.156 µM (active) with SF-539; 0.13 µM (active) in the assay on SN12C; 0.0466 µM (active) in the assay with SNB-75; 0.238 µM (active) in the assay with SR; 0.11 µM (active) with T47D. Also, the GI50 in the assay with U-251 is 0.23 µM (active).
`CC1(C)C2CC1C(/C=N\OCC(=O)O)=CC2=O` (stereo not drawn): the GI50 in the assay with BT-549, in the assay on HCC 2998, with HCT-116, in the assay on HL-60, with HOP-62 and in the assay with LOX IMVI was > 100 µM (inactive) throughout. Also, the GI50 with NCI-H23, with NCI-H460, in the assay on OVCAR-5, with OVCAR-8, in the assay with RPMI-8226 and with RXF 393 was > 100 µM (inactive) throughout. The GI50 in the assay with SF-268, in the assay on SF-539, with SN12C, in the assay on SR, in the assay with T47D and in the assay on U-251 was > 100 µM (inactive) throughout.
In the case of `CC(C)=C[C@H]1C[C@H](C)[C@H]2CC[C@H](C)c3c2c1c(C)c1ncoc31`, the GI50 was 21.1 µM (inactive) in the assay on BT-549; 20 µM (inactive) in the assay with HCC 2998; 18.6 µM (inactive) in the assay on HCT-116; 11.5 µM (inactive) in the assay on HL-60; 20.1 µM (inactive) in the assay with LOX IMVI; 18.4 µM (inactive) with NCI-H460. For the same compound, the GI50 in the assay with OVCAR-5 is 16 µM (inactive); in the assay with OVCAR-8, 19.2 µM (inactive); with RPMI-8226 it was 12.2 µM (inactive); with RXF 393, 11.9 µM (inactive); in the assay on SF-268, 19.5 µM (inactive); in the assay on SF-539, 16.4 µM (inactive). Also, the GI50 with SN12C was 19.5 µM (inactive); with SNB-75, 18.8 µM (inactive); with SR, 14.1 µM (inactive); with T47D it was 17.8 µM (inactive); with U-251, 16.8 µM (inactive).
For the compound `CCOC(=O)CC[C@H](N)C(=O)N[C@@H](Cc1ccc(N(CCCl)CCCl)cc1)C(=O)OCC`, the GI50 is 7.83 µM (inactive) in the assay with BT-549; 1.25 µM (inactive) with HCC 2998; 0.851 µM (active) with HCT-116; 0.0705 µM (active) in the assay with HL-60; 2.37 µM (inactive) in the assay with HOP-62; 0.184 µM (active) in the assay on LOX IMVI. Further, the GI50 in the assay on NCI-H23 was 0.278 µM (active); with NCI-H460, 0.0364 µM (active); with OVCAR-5 it was 2.39 µM (inactive); in the assay on OVCAR-8, 0.891 µM (active); in the assay with RPMI-8226 it was 2.54 µM (inactive); in the assay on RXF 393 it was 0.658 µM (active). Besides, the GI50 was 0.711 µM (active) in the assay with SF-268; 0.706 µM (active) with SF-539; 2.15 µM (inactive) in the assay with SN12C; 1.22 µM (inactive) in the assay with SNB-75; < 0.0201 µM (active) in the assay with SR; 0.718 µM (active) in the assay on T47D. The GI50 in the assay on U-251 was 1.94 µM (inactive).
Take `CCOC(=O)c1cc2c(C(=O)c3ccc([N+](=O)[O-])cc3)c(C(C)=O)ccc2[nH]1`: the GI50 in the assay with BT-549 is 38.5 µM (inactive); in the assay on HCC 2998 it was > 100 µM (inactive); in the assay with HCT-116, 45.6 µM (inactive); with HL-60, > 100 µM (inactive); in the assay with HOP-62, 4.43 µM (inactive); in the assay with LOX IMVI, 99.8 µM (inactive). Moreover, the GI50 in the assay with NCI-H23 is 50.2 µM (inactive); in the assay on NCI-H460, 82.6 µM (inactive); in the assay on OVCAR-5, > 100 µM (inactive); with RPMI-8226, > 100 µM (inactive); in the assay on RXF 393 it was 15.2 µM (inactive); in the assay with SF-268 it was 8.3 µM (inactive). Also, the GI50 in the assay on SF-539 was 17.8 µM (inactive); in the assay on SN12C, 72.8 µM (inactive); in the assay on SNB-75, 11.6 µM (inactive); in the assay on SR, > 100 µM (inactive); in the assay on T47D it was 29.9 µM (inactive); with U-251 it was 9.51 µM (inactive).
As to `COc1ccc(/C=C2\C(=O)N(C)C(=O)c3cc(OC)c(OC)cc32)cc1OC`, the GI50 is 17.6 µM (inactive) in the assay with BT-549; > 100 µM (inactive) in the assay with HCC 2998; 29.4 µM (inactive) in the assay on HCT-116; 14.5 µM (inactive) in the assay with HL-60; 29.9 µM (inactive) in the assay on HOP-62; 16 µM (inactive) with LOX IMVI. The GI50 in the assay on NCI-H23 was 39.5 µM (inactive); in the assay on NCI-H460 it was 37.5 µM (inactive); with OVCAR-5 it was 48.9 µM (inactive); with RPMI-8226, 27.7 µM (inactive); in the assay with RXF 393, 23.6 µM (inactive); with SF-539 it was 34.9 µM (inactive). The GI50 with SN12C is 32.8 µM (inactive); in the assay with SR, 19.2 µM (inactive); with T47D it was 24.5 µM (inactive); in the assay with U-251 it was 33 µM (inactive).
Take `O=C(Nc1ccccn1)c1cc2c(cc1Cl)Sc1nccn1S2(=O)=O`: the GI50 in the assay with BT-549 was 71.3 µM (inactive); in the assay with HCC 2998, 16.1 µM (inactive); with HCT-116, 28.4 µM (inactive); in the assay with HL-60, 23.9 µM (inactive); with HOP-62 it was 39.6 µM (inactive); in the assay on LOX IMVI, 26.8 µM (inactive). The GI50 with NCI-H23 was 27.4 µM (inactive); in the assay with NCI-H460, 30.1 µM (inactive); in the assay on OVCAR-5, > 100 µM (inactive); in the assay on OVCAR-8, 37.8 µM (inactive); with RPMI-8226, 29.7 µM (inactive); in the assay with RXF 393 it was 25.5 µM (inactive). For the same compound, the GI50 was 37.8 µM (inactive) in the assay on SF-268; 36.6 µM (inactive) in the assay with SN12C; 33.2 µM (inactive) with SNB-75; 29.4 µM (inactive) in the assay on SR; 20.7 µM (inactive) in the assay with T47D; 44.4 µM (inactive) in the assay on U-251.
On to `CC(=O)c1c2n(n(-c3ccccc3)c1=O)C(=O)c1nccnc1-2`, for which the GI50 in the assay with BT-549, with HCC 2998, in the assay on HCT-116, in the assay with HL-60, in the assay with LOX IMVI and with NCI-H23 was > 100 µM (inactive) throughout. For the same compound, the GI50 in the assay with NCI-H460, in the assay with OVCAR-5, with OVCAR-8, with RPMI-8226, in the assay with RXF 393 and in the assay on SF-268 was > 100 µM (inactive) throughout. Moreover, the GI50 with SF-539 was > 100 µM (inactive); in the assay with SN12C, > 100 µM (inactive); in the assay with SNB-75, 54.1 µM (inactive); with SR it was > 100 µM (inactive); in the assay with T47D, > 100 µM (inactive); with U-251 it was > 100 µM (inactive).
